Measurements: US20250255981A1, “IMMUNOMODULATORY ANTIBODY-DRUG CONJUGATES” (Seagen Inc., priority 2022, published 2025)
Converted amounts (≈) assume the structure as drawn.

Tested on: THP1-Dual™ cells (IRF-Lucia luciferase reporter)
Assay: THP1-Dual™ cell reporter assay
Format: cell-based, human
Conditions: ADC: drug linker conjugated to targeted mAb, 48 h; some values average of multiple experiments
Procedure: Potency of compounds and ADCs was evaluated using the THP1-Dual™ cells (Invivogen PN: thpd-nfis [also referred to as THP1 dual reporter cells]), which contain an IRF-Lucia luciferase reporter. Cells were cultured in RPMI-1640 (Gibco) with 10% heat-inactivated fetal bovine serum, Pen-Strep (100 U/mL-100 […], Gibco), HEPES (10 mM, Gibco)), sodium pyruvate (1 mM, Gibco), MEM non-essential amino acids (1×, Gibco), GlutaMAX (1×, Gibco), and beta-mercaptoethanol (55 μM, Gibco). Cells were plated in a 96-well flat bottom tissue culture-treated clear polystyrene plate (Corning Costar #3596) at ˜100,000 cells per well in 200 μL with the indicated concentration of the compound or ADC. The supernatant was harvested at 24 hours (compounds) or 48 hours (ADC) post plating for the reporter assay, or as indicated. To measure Lucia reporter signal, 10 µL of the supernatant was combined with 40 µL of QUANTI-Luc™ Luminescence assay reagent (Invivogen PN: rep-qlc1) in a 96-well clear flat bottom tissue culture-treated black polystyrene plate (Corning Costar #3603) and read on a Perkin Elmer Envision plate reader.

| SMILES | EC50, Lucia reporter signal |
| --- | --- |
| CCn1nc(C)cc1C(=O)Nc1nc2cc(C(N)=O)cc(OC)c2n1C/C=C/Cn1c(NC(=O)c2cc(C(F)(F)F)nn2CC)nc2cc(C(N)=O)cc(OCCCN(C)C(=O)CCN3C(=O)C=CC3=O)c21 [compound 109] | >10,000 ng/mL |
| CCn1nc(C)cc1C(=O)Nc1nc2cc(C(=O)OC)cc(OC)c2n1C/C=C/Cn1c(NC(=O)c2cc(C)nn2CC)nc2cc(C(=O)OC)cc(OCCCN(C)C(=O)CCN3C(=O)C=CC3=O)c21 [compound 66, methyl (E)-7-(3-(3-(2,5-dioxo-2,5-dihydro-1H-pyrrol-1-yl)-N-methylpropanamido)propoxy)-2-(1-ethyl-3-methyl-1H-pyrazole-5-carboxamido)-1-(4-(2-(1-ethyl-3-methyl-1H-pyrazole-5-carboxamido)-7-methoxy-5-(methoxycarbonyl)-1H-benzo[d]imidazol-1-yl)but-2-en-1-yl)-1H-benzo[d]imidazole-5-carboxylate] | >10,000 ng/mL |
| CCn1nc(C)cc1C(=O)Nc1nc2cc(C(N)=O)cc(OC)c2n1C/C=C/Cn1c(NC(=O)c2cc(C)nn2CC)nc2cc(C(N)=O)cc(OCCCN(C)C(=O)[C@H](CC(C)C)NC(=O)CCN3C(=O)C=CC3=O)c21 [compound 121] | 3.0 ng/mL (≈ 2.84 nM) |
| CCn1nc(C)cc1C(=O)Nc1nc2cc(C(N)=O)cc(OC)c2n1C/C=C/Cn1c(NC(=O)c2cc(C)sn2)nc2cc(C(N)=O)cc(OCCCN(C)C(=O)CCN3C(=O)C=CC3=O)c21 [compound 107] | >10,000 ng/mL |
